According to patent US10709724B2, “Methods of treating mitochondrial dysfunction” (Ecole Polytechnique Federale de Lausanne (EPFL), priority 2011, dated 2020):

How the values were obtained:
[1] = system: SIRT3; experiment: SIRT3 activity (Ndufa9, SOD2 acetylation) in NR-treated HEK293T cells; format: cell-based, human; conditions: 0.5 mM, 24 hrs
Description: Immunoprecipitation, SDS-PAGE, Western Blotting. Cells were lysed in lysis buffer (50 mM Tris, […], EDTA 1 mM, NP40 1%, nicotinamide 5 mM, Na-butyrate 1 in M, protease inhibitors pH7.4). Proteins were separated by SDS-PAGE and transferred onto nitrocellulose membranes. The origin of the primary and secondary antibodies used can be found as supplemental experimental procedures. Reactions were developed by enhanced chemiluminescence (Amersham, Little Chalfont, UK), PGC-1α, FOXO1 and Ndufa9 acetylation levels were analyzed by immunoprecipitation from cellular or nuclear lysates of tissues with anti-PGC-1α (Millipore), anti-FOXO1 (Cell Signaling, Danvers, Mass., USA) and anti-Ndufa9 (Abcam) antibody followed by Western blot using an acetyl-lysine antibody (Cell Signaling) that was normalized to total PGC-1a/FOXO1/Ndufa9 levels (Lagouge et al., 2006; Rodgers et al., 2005). In HEK293T cells HA-tagged PGC-1α was overexpressed and was immunoprecipitated using an anti-HA. In C2C12 myotubes, FLAG-HA tagged PGC-1α was introduced through adenoviral delivery 2 days before treatments, then IP was performed using anti-FLAG antibody and samples were processed as described. All blots were quantified by densitometry using ImageJ software. Poly(ADP-Ribose) detection was performed as previously described with slight modifications (Bai et al., PARP-1 inhibition increases mitochondrial metabolism through SIRT1 activation. Cell Metab 13, 461-468. (2011)) Briefly, PAR was detected by using a monoclonal anti-PAR antibody (Alexis, Lausanne Switzerland) by Western blotting of total protein lysates, using either […] of total worm protein lysates, […] of liver protein lysate or 200 g of muscle total protein extracts. PGC-1 acetylation was determined using PGC-1 immunoprecipitates from 2 mg of protein extracts, as described in Canto et al. (Canto et al., AMPK regulates energy expenditure by modulating NAD+ metabolism and SIRT1 activity. Nature 458, 1056 (2009)). […]

[2] = biological target: T1, GPR109A (Homo sapiens, UniProt Q8TDS4); format: cell-based; conditions: GPR109A-expressing Chem-4 cells
T1 construct: host or cells: Chem-4 cells (Ready-to-Assay GPR109A Nicotinic Acid Receptor Cells)
T1 sequence (Q8TDS4 whole entry): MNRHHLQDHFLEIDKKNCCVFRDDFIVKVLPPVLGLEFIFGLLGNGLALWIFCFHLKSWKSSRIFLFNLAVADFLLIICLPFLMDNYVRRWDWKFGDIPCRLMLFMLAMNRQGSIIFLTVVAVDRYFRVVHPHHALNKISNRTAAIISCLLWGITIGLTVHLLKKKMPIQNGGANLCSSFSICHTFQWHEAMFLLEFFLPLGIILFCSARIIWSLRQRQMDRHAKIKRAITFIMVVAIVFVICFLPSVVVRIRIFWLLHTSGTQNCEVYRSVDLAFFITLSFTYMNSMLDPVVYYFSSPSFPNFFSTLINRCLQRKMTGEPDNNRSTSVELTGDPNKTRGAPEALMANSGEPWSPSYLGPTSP
Description: GPR109A—Calcium Mobilization Assay. Ready-to-Assai™ GRP109A Nicotinic Acid Receptor Cells were used to measure calcium mobilization as specified by the manufacturer (Millipore). Calcium flux was determined using excitation at 340 and 380 nm in a fluorescence spectrophotometer (Victor X4, Perkin Elmer) in a 180 seconds time course, adding the ligand at 60 seconds. Internal validation was made using 0.1% Triton X-100 for total fluorophore release and 10 mM EGTA to chelate free calcium. Similarly, GPR109A specificity was internally validated using control cells devoid of GRP109A overexpression. Liver triglyceride measurement Liver triglycerides were measured from 20 mg of liver tissue using a variation of the Folch method, as described in Bai et al. (Bai et al., PARP-2 regulates SIRT1 expression and whole-body energy expenditure. (2011). Cell Metab 13, 450-460.

[3] = system: SIRT1; experiment: SIRT1 activity (PGC-1α acetylation) and SIRT1 protein in C2C12 myotubes; format: cell-based
Description: Immunoprecipitation, SDS-PAGE, Western Blotting. Cells were lysed in lysis buffer (50 mM Tris, […], EDTA 1 mM, NP40 1%, nicotinamide 5 mM, Na-butyrate 1 in M, protease inhibitors pH7.4). Proteins were separated by SDS-PAGE and transferred onto nitrocellulose membranes. The origin of the primary and secondary antibodies used can be found as supplemental experimental procedures. Reactions were developed by enhanced chemiluminescence (Amersham, Little Chalfont, UK), PGC-1α, FOXO1 and Ndufa9 acetylation levels were analyzed by immunoprecipitation from cellular or nuclear lysates of tissues with anti-PGC-1α (Millipore), anti-FOXO1 (Cell Signaling, Danvers, Mass., USA) and anti-Ndufa9 (Abcam) antibody followed by Western blot using an acetyl-lysine antibody (Cell Signaling) that was normalized to total PGC-1a/FOXO1/Ndufa9 levels (Lagouge et al., 2006; Rodgers et al., 2005). In HEK293T cells HA-tagged PGC-1α was overexpressed and was immunoprecipitated using an anti-HA. In C2C12 myotubes, FLAG-HA tagged PGC-1α was introduced through adenoviral delivery 2 days before treatments, then IP was performed using anti-FLAG antibody and samples were processed as described. All blots were quantified by densitometry using ImageJ software. Poly(ADP-Ribose) detection was performed as previously described with slight modifications (Bai et al., PARP-1 inhibition increases mitochondrial metabolism through SIRT1 activation. Cell Metab 13, 461-468. (2011)) Briefly, PAR was detected by using a monoclonal anti-PAR antibody (Alexis, Lausanne Switzerland) by Western blotting of total protein lysates, using either […] of total worm protein lysates, […] of liver protein lysate or 200 g of muscle total protein extracts. PGC-1 acetylation was determined using PGC-1 immunoprecipitates from 2 mg of protein extracts, as described in Canto et al. (Canto et al., AMPK regulates energy expenditure by modulating NAD+ metabolism and SIRT1 activity. Nature 458, 1056 (2009)).

| SMILES | SOD2 activity [1] | acetylation status of Ndufa9 [1] | acetylation status of SOD2 [1] | GPR109A activation (calcium flux) [2] | SIRT1 protein levels ([3]; 24 hrs) | PGC-1α acetylation (SIRT1 activation) ([3]; 24 hrs, dose-dependent (FIG. 6F)) | SIRT1 function (PGC-1α acetylation) during H2O2 treatment ([3]; H2O2 500 μM, 6 hrs, PJ34 1 μM) | SIRT1 protein levels during H2O2 treatment ([3]; H2O2 500 μM, 6 hrs, PJ34 1 μM) |
| --- | --- | --- | --- | --- | --- | --- | --- | --- |
| NC(=O)c1ccc[n+]([C@@H]2O[C@H](CO)[C@@H](O)[C@H]2O)c1 [NR, nicotinamide riboside] | enhanced SOD2 activity | reduced the acetylation status | reduced the acetylation status | did not activate GPR109A |  |  |  |  |
| CN(C)CC(=O)Nc1ccc2[nH]c(=O)c3ccccc3c2c1 [PJ34] |  |  |  |  | did not change SIRT1 protein levels | deacetylation of PGC-1α | enhanced SIRT1 function | SIRT1 protein levels did not change |
